Data reported in article PMC9081768, “Spectroscopy, Structure, Biomacromolecular Interactions, and Antiproliferation Activity of a Fe(II) Complex With DPA-Bpy as Pentadentate Ligand” (Frontiers in Chemistry, 2022).

Target: T1, human serum albumin (HSA) (Homo sapiens, UniProt P02768)
T1 construct: gene ALB
Assay: X-ray crystal structure at […] Å (seven molecules seen in the HSA Fe complex adduct)
Format: binding

T1 sequence (P02768 25-609): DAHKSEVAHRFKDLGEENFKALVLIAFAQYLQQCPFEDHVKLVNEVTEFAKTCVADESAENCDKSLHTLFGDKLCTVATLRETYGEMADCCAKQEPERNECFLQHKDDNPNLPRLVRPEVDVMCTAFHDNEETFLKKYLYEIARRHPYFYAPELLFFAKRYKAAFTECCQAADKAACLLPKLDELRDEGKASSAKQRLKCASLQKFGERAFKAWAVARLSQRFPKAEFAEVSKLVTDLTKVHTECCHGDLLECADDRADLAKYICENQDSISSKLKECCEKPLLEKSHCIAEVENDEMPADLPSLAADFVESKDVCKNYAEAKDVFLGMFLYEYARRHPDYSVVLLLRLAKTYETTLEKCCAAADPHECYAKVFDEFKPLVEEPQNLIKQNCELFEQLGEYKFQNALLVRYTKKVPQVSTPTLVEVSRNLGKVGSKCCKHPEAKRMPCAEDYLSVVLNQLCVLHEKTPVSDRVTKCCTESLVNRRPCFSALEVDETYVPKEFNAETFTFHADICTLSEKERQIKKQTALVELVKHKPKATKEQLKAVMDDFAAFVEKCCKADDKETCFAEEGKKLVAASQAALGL

CCCCCCCCCCCCCCCC(=O)O [PA, palmitic acid]
X-ray crystal structure at 2.4 Å (seven molecules seen in the HSA Fe complex add): seven palmitic acid (PA) molecules are present in the subdomains of I–III
